The nature of data set [1]: Cytotoxicity against rat L6 cells. The note with it: read-out: TD50 (the source's name). Format: cell-based.
The test system of another data set is Leishmania donovani. In words: Antiparasitic activity against axenic amastigotes of Leishmania donovani. The data set is classed as functional, organism-based.
Another data set deals with Trypanosoma cruzi. In words: Antiparasitic activity against amastigotes of Trypanosoma cruzi. Format: functional, organism-based.
Data set [2] concerns Trypanosoma brucei rhodesiense. The data set can be described thus: Antiparasitic activity against blood stream form of Trypanosoma brucei rhodesiense. The data set is classed as functional, organism-based.

Usually EC50 stands for the concentration needed to bring the measured effect to its halfway point. The low end stands for greater potency, the high end for weaker potency. As to `COC(=O)CCCNCCc1ccc(NC(=O)c2ccc(COC(C)=O)cc2)cc1`, the CC50 in data set [1] was more than 218 µM. Besides, the values for the EC50 (in the data set with Leishmania donovani; in the data set with Trypanosoma cruzi; in data set [2]) were 73 µM, 141 µM and 11.5 µM, respectively.
Turning to `COC(=O)CCCNCc1ccc(NC(=O)c2ccc(COC(C)=O)cc2)cc1`, in data set [1], the CC50 is 161 µM. Also, the EC50 in the data set with Leishmania donovani is 2.6 µM; with Trypanosoma cruzi, 207 µM; in data set [2], 78 µM.
For `CC(=O)OCc1ccc(NC(=O)N2CCC(CO)C2)cc1` (centres undefined), in data set [1], the CC50 was more than 308 µM. Further, the EC50 was 26 µM in the data set with Leishmania donovani, more than 308 µM in the data set with Trypanosoma cruzi and 52 µM in data set [2].
In the case of `COC(=O)CCCNCC1CCN(C(=O)Nc2ccc(COC(C)=O)cc2)C1` (centres undefined), the CC50 in data set [1] was more than 230 µM. The values for the EC50 (in the data set with Leishmania donovani; with Trypanosoma cruzi; in data set [2]) were 80 µM, more than 230 µM and 40 µM, respectively.
In the case of `CC(=O)OCc1ccc(NC(=O)N2CCC(CN3CCCC3=O)C2)cc1` (centres undefined), the CC50 in data set [1] is more than 250 µM. For the same compound, the results for the EC50 (in the data set on Leishmania donovani; with Trypanosoma cruzi; in data set [2]) were 30 µM, 181 µM and 43 µM, respectively.
In the case of `COC(=O)CCCCCNCC1CCN(C(=O)Nc2ccc(COC(C)=O)cc2)C1` (centres undefined), the CC50 in data set [1] was more than 214 µM. Moreover, the EC50 with Leishmania donovani is 41 µM; in the data set on Trypanosoma cruzi, more than 215 µM; in data set [2], 76 µM.

(Values after ChEMBL document CHEMBL1250554, “Design and preparation of sterol mimetics as potential antiparasitics” (Bioorg Med Chem, 2010).)
